Measured values taken from US7351861B2 (priority 2002, dated 2008).
pIC50: −log10 of the molar value. Read-outs that look alike come from different tables or passages of the source.

Tested on: luciferase light signal from pIB29EL (yopE-luxAB)
Assay: microbe, parasite or virus in culture
Format: cell-based, Yersinia pseudotuberculosis
Settings: for inhibition at 10 µM: read-out: Inhibition (%) of the luciferase light signal, 10 μM; for inhibition at 20 µM: read-out: Inhibition (%) of the luciferase light signal, 20 μM; for inhibition at 50 µM: read-out: Inhibition (%) of the luciferase light signal, 50 μM; for inhibition at 100 µM: read-out: Inhibition (%) of the luciferase light signal, 100 μM; for inhibition at 5 µM: read-out: Inhibition (%) of the luciferase light signal, 5 μM; for pIC50: read-out: IC50 (concentration resulting in 50% reduction of luciferase light emission)
[1] = Yersinia pseudotuberculosis, strain pIB29EL, Table 2C
[2] = 10 μM, strain pIB29EL, Table 2C
[3] = 20 μM, strain pIB29EL, Table 2C
[4] = 50 μM, strain pIB29EL, Table 2C
[5] = 100 μM, strain pIB29EL, Table 2C

Which results are given for `O=C(COc1ccccc1)N/N=C/c1c(O)ccc2ccccc12` [Compound 20]?
inhibition at 10 µM [1]: 2%; inhibition at 20 µM [1]: 5%; inhibition at 50 µM [1]: 19%; inhibition at 100 µM [1]: 48%

`O=C(N/N=C/c1cc(Br)cc(Br)c1O)c1cccnc1` [Compound 7] was tested. Which “Inhibition (%) of the luciferase light signal” value (shortened to “Inhibition (%)”) (10 μM, pIB29EL, Table 2A) did it give?
The value was 25%.

What about the “Inhibition (%)” value (20 μM, pIB29EL, Table 2A) of the same compound?
Its value is 20%.

And the “Inhibition (%)” value (50 μM, pIB29EL, Table 2A)?
Its value is 68%.

What about the “Inhibition (%)” value (100 μM, pIB29EL, Table 2A) of the same compound?
Its value is 93%.

Which “Inhibition (%)” value (10 μM, pIB29EL, Table 2A) does the source give for `O=C(N/N=C/c1cc(O)ccc1O)c1ccco1` [Compound 12] here?
The value was 12%.

What about the “Inhibition (%)” value (20 μM, pIB29EL, Table 2A) of the same compound?
The value was 16%.

And the “Inhibition (%)” value (50 μM, pIB29EL, Table 2A)?
The value was 41%.

What about the “Inhibition (%)” value (100 μM, pIB29EL, Table 2A) of the same compound?
The value was 65%.

How did the inhibition at 5 µM [1] turn out when `CC(=O)Oc1cc(C)ccc1C(=O)Nc1ccccc1F` [Compound 30] was run?
The inhibition at 5 µM was 14%.

What about the inhibition at 10 µM [1] of the same compound?
The inhibition at 10 µM was 15%.

And the inhibition at 20 µM [1]?
The inhibition at 20 µM was 35%.

And the inhibition at 50 µM [1]?
Its inhibition at 50 µM is 63%.

And the inhibition at 100 µM [1]?
Its inhibition at 100 µM is 83%.

What does the source list for `C/C(=N\NC(=O)c1ccc([N+](=O)[O-])cc1)c1cc(Br)cc(Br)c1O` [Compound 21]?
inhibition at 10 µM [1]: 21%; inhibition at 20 µM [1]: 18%; inhibition at 50 µM [1]: 44%; inhibition at 100 µM [1]: 57%

Which results are given for `O=C(N/N=C/c1ccc(O)cc1O)c1cc2ccccc2cc1O` [Compound 13]?
Inhibition (%) of the luciferase light signal (10 μM, pIB29EL, Table 2A): 26%; Inhibition (%) of the luciferase light signal (20 μM, pIB29EL, Table 2A): 47%; Inhibition (%) of the luciferase light signal (50 μM, pIB29EL, Table 2A): 69%; Inhibition (%) of the luciferase light signal (100 μM, pIB29EL, Table 2A): 73%

What does the source list for `O=C(Nc1ccc(SC(F)(F)F)cc1)c1cc2cc(Br)ccc2c(Br)c1O` [Compound 53]?
Inhibition (%) of the luciferase light signal (5 μM, strain pIB29EL, Table 2C): 11%; Inhibition (%) of the luciferase light signal [2]: 38%; Inhibition (%) of the luciferase light signal [3]: 43%; Inhibition (%) of the luciferase light signal [4]: 58%; Inhibition (%) of the luciferase light signal [5]: 68%

Which results are given for `CC1(C)S[C@@H]2[C@H](NC(=O)C(C(=O)O)c3ccccc3)C(=O)N2[C@H]1C(=O)O` (stereo partly shown) [Carbenicillin, reference compound]?
pIC50 (Yersinia pseudotuberculosis): 4.82; Inhibition of light-emission (in words) (known antibiotics, pIB29EL): dose-dependent inhibition of light-emission

How did the “Inhibition (%)” value (5 μM, strain pIB29EL, Table 2C) turn out when `CC(=O)Oc1ccc(I)cc1C(=O)Nc1ccc(Br)cc1` [Compound 51] was run?
Its value is 91%.

What about the “Inhibition (%)” value [2] of the same compound?
Its value is 87%.

And the “Inhibition (%)” value [3]?
The value was 89%.

What about the “Inhibition (%)” value [4] of the same compound?
Its value is 87%.

And the “Inhibition (%)” value [5]?
Its value is 85%.

With `O=C(Nc1ccc(SC(F)(F)F)cc1)c1cc(I)cc(I)c1O` [Compound 26] as the compound, how does the inhibition at 5 µM [1] read?
Its inhibition at 5 µM is 15%.

And the inhibition at 10 µM [1]?
The inhibition at 10 µM was 15%.

And the inhibition at 20 µM [1]?
Its inhibition at 20 µM is 41%.

And the inhibition at 50 µM [1]?
Its inhibition at 50 µM is 84%.

And the inhibition at 100 µM [1]?
Its inhibition at 100 µM is 93%.

What does the source list for `O=C(Nc1ccc(Cl)cc1)c1cc(I)cc(I)c1O` [Compound 25]?
inhibition at 5 µM [1]: 80%; inhibition at 10 µM [1]: 92%; inhibition at 20 µM [1]: 93%; inhibition at 50 µM [1]: 100%; inhibition at 100 µM [1]: 98%

What does the source list for `CCCCCCCc1ccc(NC(=O)c2cc(I)cc(I)c2O)cc1` [Compound 28]?
inhibition at 5 µM [1]: 67%; inhibition at 10 µM [1]: 90%; inhibition at 20 µM [1]: 99%; inhibition at 50 µM [1]: 99%; inhibition at 100 µM [1]: 99%

What does the source list for `CC(=O)Oc1c(Cl)cc(Cl)c(Cl)c1C(=O)Nc1ccc(SC(F)(F)F)cc1` [Compound 47]?
Inhibition (%) of the luciferase light signal (5 μM, strain pIB29EL, Table 2C): 55%; Inhibition (%) of the luciferase light signal [2]: 61%; Inhibition (%) of the luciferase light signal [3]: 73%; Inhibition (%) of the luciferase light signal [4]: 90%; Inhibition (%) of the luciferase light signal [5]: 90%

How did the “Inhibition (%)” value (5 μM, strain pIB29EL, Table 2C) turn out when `CC(=O)Oc1ccc(Cl)cc1C(=O)Nc1ccc([N+](=O)[O-])cc1Cl` [Compound 56] was run?
The value was 77%.

And the “Inhibition (%)” value [2]?
Its value is 90%.

What about the “Inhibition (%)” value [3] of the same compound?
The value was 91%.

And the “Inhibition (%)” value [4]?
The value was 91%.

What about the “Inhibition (%)” value [5] of the same compound?
The value was 90%.

What does the source list for `O=C(N/N=C/c1c(O)ccc2ccccc12)c1ccccc1` [Compound 9]?
Inhibition (%) of the luciferase light signal (10 μM, pIB29EL, Table 2A): 9%; Inhibition (%) of the luciferase light signal (20 μM, pIB29EL, Table 2A): 21%; Inhibition (%) of the luciferase light signal (50 μM, pIB29EL, Table 2A): 41%; Inhibition (%) of the luciferase light signal (100 μM, pIB29EL, Table 2A): 49%

For `O=C(Nc1ccccc1)c1cc(I)cc(I)c1O` [Compound 31], which “Inhibition (%)” value (5 μM, strain pIB29EL, Table 2C) is on record?
The value was 10%.

And the “Inhibition (%)” value [2]?
Its value is 30%.

And the “Inhibition (%)” value [3]?
The value was 60%.

What about the “Inhibition (%)” value [4] of the same compound?
Its value is 77%.

What about the “Inhibition (%)” value [5] of the same compound?
Its value is 98%.

With `CC(=O)Oc1c(I)cc(I)cc1C(=O)Nc1cc(Cl)ccc1F` [Compound 49] as the compound, how does the “Inhibition (%)” value (5 μM, strain pIB29EL, Table 2C) read?
Its value is 24%.

And the “Inhibition (%)” value [2]?
The value was 34%.

What about the “Inhibition (%)” value [3] of the same compound?
The value was 63%.

And the “Inhibition (%)” value [4]?
The value was 89%.

And the “Inhibition (%)” value [5]?
Its value is 88%.

What does the source list for `CC(=O)Oc1c(I)cc(I)cc1C(=O)Nc1ccc(SC(F)(F)F)cc1` [Compound 33]?
inhibition at 5 µM [1]: 71%; inhibition at 10 µM [1]: 70%; inhibition at 20 µM [1]: 68%; inhibition at 50 µM [1]: 69%; inhibition at 100 µM [1]: 71%

What does the source list for `O=C(Nc1ccc(SC(F)(F)F)cc1)c1cccc(Cl)c1O` [Compound 54]?
Inhibition (%) of the luciferase light signal (5 μM, strain pIB29EL, Table 2C): 41%; Inhibition (%) of the luciferase light signal [2]: 63%; Inhibition (%) of the luciferase light signal [3]: 86%; Inhibition (%) of the luciferase light signal [4]: 89%; Inhibition (%) of the luciferase light signal [5]: 87%

How did the “Inhibition of light-emission (in words)” value turn out when Polymixin B [reference compound] was run?
The value was “dose-dependent inhibition of light-emission”.

And the pIC50?
Its pIC50 is 6.82.

What does the source list for `O=C(Nc1ccc(Br)cc1)c1cc(I)ccc1O` [Compound 50]?
Inhibition (%) of the luciferase light signal (5 μM, strain pIB29EL, Table 2C): 57%; Inhibition (%) of the luciferase light signal [2]: 69%; Inhibition (%) of the luciferase light signal [3]: 62%; Inhibition (%) of the luciferase light signal [4]: 72%; Inhibition (%) of the luciferase light signal [5]: 70%

For `NC(=O)C(=O)N/N=C/c1cc(Br)cc(Br)c1O` [Compound 61], which “Inhibition (%)” value (5 μM, strain pIB29EL, Table 2C) is on record?
Its value is 7%.

What about the “Inhibition (%)” value [2] of the same compound?
The value was 9%.

And the “Inhibition (%)” value [3]?
Its value is 19%.

And the “Inhibition (%)” value [4]?
The value was 32%.

What about the “Inhibition (%)” value [5] of the same compound?
Its value is 55%.

Which “Inhibition (%)” value (5 μM, strain pIB29EL, Table 2C) does the source give for `CC(=O)Oc1ccc(I)cc1C(=O)Nc1ccc(Cl)cc1` [Compound 62] here?
Its value is 95%.

What about the “Inhibition (%)” value [2] of the same compound?
Its value is 92%.

And the “Inhibition (%)” value [3]?
The value was 91%.

And the “Inhibition (%)” value [4]?
The value was 91%.

And the “Inhibition (%)” value [5]?
Its value is 90%.

With `O=C(Nc1ccccc1F)c1cc(Br)cc(Br)c1O` [Compound 27] as the compound, how does the inhibition at 5 µM [1] read?
Its inhibition at 5 µM is 9%.

And the inhibition at 10 µM [1]?
Its inhibition at 10 µM is 3%.

What about the inhibition at 20 µM [1] of the same compound?
Its inhibition at 20 µM is 1%.

And the inhibition at 50 µM [1]?
Its inhibition at 50 µM is 13%.

And the inhibition at 100 µM [1]?
The inhibition at 100 µM was 20%.

For `O=C(Nc1ccc(Cl)cc1)c1ccccc1O` [Compound 24], which inhibition at 5 µM [1] is on record?
The inhibition at 5 µM was 7%.

What about the inhibition at 10 µM [1] of the same compound?
The inhibition at 10 µM was 30%.

And the inhibition at 20 µM [1]?
The inhibition at 20 µM was 73%.

What about the inhibition at 50 µM [1] of the same compound?
The inhibition at 50 µM was 90%.

And the inhibition at 100 µM [1]?
Its inhibition at 100 µM is 88%.

What does the source list for `[H]/N=C(/N)N[C@H]1[C@H](O)[C@@H](O)[C@H](O[C@@H]2O[C@@H](C)[C@](O)(C=O)[C@H]2O[C@@H]2O[C@@H](CO)[C@H](O)[C@@H](O)[C@@H]2NC)[C@@H](N/C(N)=N\[H])[C@@H]1O` [Streptomycin, reference compound]?
pIC50 (Yersinia pseudotuberculosis): 5.40; Inhibition of light-emission (in words) (known antibiotics, pIB29EL): dose-dependent inhibition of light-emission

Which results are given for `C=CCc1cccc(/C=N/NC(=O)c2ccc([N+](=O)[O-])cc2)c1O` [Compound 10]?
Inhibition (%) of the luciferase light signal (10 μM, pIB29EL, Table 2A): 30%; Inhibition (%) of the luciferase light signal (20 μM, pIB29EL, Table 2A): 49%; Inhibition (%) of the luciferase light signal (50 μM, pIB29EL, Table 2A): 56%; Inhibition (%) of the luciferase light signal (100 μM, pIB29EL, Table 2A): 57%

Which results are given for `CC(C)(C)c1ccc(NC(=O)c2c(O)c(Cl)cc(Cl)c2Cl)cc1` [Compound 32]?
inhibition at 5 µM [1]: 14%; inhibition at 10 µM [1]: 23%; inhibition at 20 µM [1]: 37%; inhibition at 50 µM [1]: 42%; inhibition at 100 µM [1]: 46%
